Read-outs that look alike come from different tables or passages of the source.
Assays:
[1] = in vivo; cited from earlier work
[2] = single intravenous injection; cited from earlier work
[3] = cited from earlier work
[4] = cited from earlier work; remark: listed apart in the source
[5] = Dissolution of cholate for oral solution; assay type: physicochemical; settings: aqueous sodium bicarbonate
chronic hepatitis C = settings: 90 μg/week vs no treatment; cited from earlier work

For `Cc1cc(=O)n(-c2ccccc2)n1C` [antipyrine], the “drug appearing unchanged in the urine” value [1] is listed as 5%.

For `O=C[C@H](O)[C@@H](O)[C@@H](O)[C@H](O)CO` [galactose], the “share of total plasma elimination due to distribution and metabolism outside the liver” value [2] is listed as 40% and the “share of total plasma elimination due to hepatic clearance” value [2] is listed as “Approximately 60%”.

For `CCN(CC)CC(=O)Nc1c(C)cccc1C` [Lidocaine], the “side effects (sensory symptoms)” value ([3]; lower dose (less than 1 mg/kg such as 0.5 mg/kg) iv) is given as 30%, the “side effects (sensory symptoms)” value ([3]; standard dose 1 mg/kg iv over 2 minutes) is given as 53% and the first pass elimination ([4]; in vivo) is given as “up to 81%”.

For `C[C@H](CCC(=O)O)[C@H]1CC[C@H]2[C@@H]3[C@H](O)C[C@@H]4C[C@H](O)CC[C@]4(C)[C@H]3C[C@H](O)[C@]12C` [Cholate, cholic acid], the dissolution [5] was “easily dissolved”.

In the case of peginterferon alfa-2a [PegIFN], the “effect on clinical or histological outcomes” value (chronic hepatitis C) is listed as “did not affect clinical or histological outcomes”.

In the case of `CC1(C)C(/C=C/C=C/C=C/C=C2\N(CCCCS(=O)(=O)O)c3ccc4ccccc4c3C2(C)C)=[N+](CCCCS(=O)(=O)[O-])c2ccc3ccccc3c21` [Indocyanine green], the first-pass hepatic extraction ([4]; administered intravenously) is listed as “up to 80%”.

Source: patent publication US10215746B2, “Methods for diagnosis and intervention of hepatic disorders” (The Regents of the University of Colorado, priority 2005, dated 2019)
